Laboratory results taken from US9169254B2, “Spiroimidazolone derivative” (Chugai Seiyaku Kabushiki Kaisha, priority 2009, dated 2015).

target: T1, human PTH1 receptor (Homo sapiens, UniProt Q03431); test: In vitro cAMP signal activity in HKRK-B7 cells (LLC-PK1 cells overexpressing the human PTH1 receptor); type: cell-based; conditions: HKRK-B7 cells; compound at 1×10^−3 M; cAMP produced as percentage of that produced by hPTH(1-34) at 100 nM
T1 sequence (Q03431 27-593): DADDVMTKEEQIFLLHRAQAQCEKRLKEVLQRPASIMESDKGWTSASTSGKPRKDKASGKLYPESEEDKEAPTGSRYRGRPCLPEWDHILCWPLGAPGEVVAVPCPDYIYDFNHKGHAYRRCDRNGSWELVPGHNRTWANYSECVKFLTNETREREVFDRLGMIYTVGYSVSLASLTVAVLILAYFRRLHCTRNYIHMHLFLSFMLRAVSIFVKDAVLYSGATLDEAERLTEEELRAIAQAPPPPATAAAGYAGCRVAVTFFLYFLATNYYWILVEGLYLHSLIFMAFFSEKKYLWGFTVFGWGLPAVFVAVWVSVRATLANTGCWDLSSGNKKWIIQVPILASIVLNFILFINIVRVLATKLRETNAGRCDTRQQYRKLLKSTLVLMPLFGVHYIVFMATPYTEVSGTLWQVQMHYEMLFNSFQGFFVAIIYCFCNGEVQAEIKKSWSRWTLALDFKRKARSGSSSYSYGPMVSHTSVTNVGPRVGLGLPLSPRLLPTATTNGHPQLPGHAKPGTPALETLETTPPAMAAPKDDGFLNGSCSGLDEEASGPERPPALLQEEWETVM

SMILES | cAMP production activity (%)
CC(=O)N(CCOCCF)c1cc(C)c(CCS(=O)(=O)N2CCC3(CC2)N=C(C2CCC(CCC(F)(F)F)CC2)NC3=O)c(C)c1 (centres unmarked) [Compound 766, N-[3,5-dimethyl-4-(2-{4-oxo-2-[4-(3,3,3-trifluoro-propyl)-cyclohexyl]-1,3,8-triaza-spiro[4.5]dec-1-ene-8-sulfonyl}-ethyl)-phenyl]-N-[2-(2-fluoro-ethoxy)-ethyl]-acetamide] | 88%
Cc1cc(N2C(=O)NC(C)C2=O)cc(C)c1CCS(=O)(=O)N1CCC2(CC1)N=C(C1CCC(C)CC1)NC2=O (centres unmarked) [Compound 767, 3-(3,5-dimethyl-4-{2-[2-(4-methyl-cyclohexyl)-4-oxo-1,3,8-triaza-spiro[4.5]dec-1-ene-8-sulfonyl]-ethyl}-phenyl)-5-methyl-imidazolidine-2,4-dione] | 83%
Cc1cc(C(=O)O)cc(C)c1CCS(=O)(=O)N1CCC2(CC1)N=C(C1CCC(CCC(F)(F)F)CC1)NC2=O (centres unmarked) [Compound 768, 3,5-dimethyl-4-(2-{4-oxo-2-[4-(3,3,3-trifluoro-propyl)-cyclohexyl]-1,3,8-triaza-spiro[4.5]dec-1-ene-8-sulfonyl}-ethyl)-benzoic acid] | 79%
CC(=O)NNC(=O)c1cc(C)c(CCS(=O)(=O)N2CCC3(CC2)N=C(C2CCC(CCC(F)(F)F)CC2)NC3=O)c(C)c1 (centres unmarked) [Compound 769, 3,5-dimethyl-4-(2-{4-oxo-2-[4-(3,3,3-trifluoro-propyl)-cyclohexyl]-1,3,8-triaza-spiro[4.5]dec-1-ene-8-sulfonyl}-ethyl)-benzoic acid N′-acetyl-hydrazide] | 55%
Cc1cc(CO)cc(C)c1CCS(=O)(=O)N1CCC2(CC1)N=C(C1CCC(CCC(F)(F)F)CC1)NC2=O (centres unmarked) [Compound 770, 8-[2-(4-hydroxymethyl-2,6-dimethyl-phenyl)-ethanesulfonyl]-2-[4-(3,3,3-trifluoro-propyl)-cyclohexyl]-1,3,8-triaza-spiro[4.5]dec-1-en-4-one] | 105%
Cc1cc(N2CCCCC2=O)cc(C)c1CCS(=O)(=O)N1CCC2(CC1)N=C(C1CCC(C)CC1)NC2=O (centres unmarked) [Compound 771, 8-{2-[2,6-dimethyl-4-(2-oxo-piperidin-1-yl)-phenyl]-ethanesulfonyl}-2-(4-methyl-cyclohexyl)-1,3,8-triaza-spiro[4.5]dec-1-en-4-one] | 80%
CC(=O)NCc1cc(C)c(CCS(=O)(=O)N2CCC3(CC2)N=C(C2CCC(CCC(F)(F)F)CC2)NC3=O)c(C)c1 (centres unmarked) [Compound 772, N-[3,5-dimethyl-4-(2-{4-oxo-2-[4-(3,3,3-trifluoro-propyl)-cyclohexyl]-1,3,8-triaza-spiro[4.5]dec-1-ene-8-sulfonyl}-ethyl)-benzyl]-acetamide] | 69%
CC(=O)NCc1cc(C)c(CCS(=O)(=O)N2CCC3(CC2)N=C(C2CCC(C)CC2)NC3=O)c(C)c1 (centres unmarked) [Compound 773, N-(3,5-dimethyl-4-{2-[2-(4-methyl-cyclohexyl)-4-oxo-1,3,8-triaza-spiro[4.5]dec-1-ene-8-sulfonyl]-ethyl}-benzyl)-acetamide] | 86%
Cc1cc(CN2C(=O)CNC2=O)cc(C)c1CCS(=O)(=O)N1CCC2(CC1)N=C(C1CCC(CCC(F)(F)F)CC1)NC2=O (centres unmarked) [Compound 774, 3-[3,5-dimethyl-4-(2-{4-oxo-2-[4-(3,3,3-trifluoro-propyl)-cyclohexyl]-1,3,8-triaza-spiro[4.5]dec-1-ene-8-sulfonyl}-ethyl)-benzyl]-imidazolidine-2,4-dione] | 80%
Cc1cc(CN2C(=O)NC(C)(C)C2=O)cc(C)c1CCS(=O)(=O)N1CCC2(CC1)N=C(C1CCC(CCC(F)(F)F)CC1)NC2=O (centres unmarked) [Compound 775, 3-[3,5-dimethyl-4-(2-{4-oxo-2-[4-(3,3,3-trifluoro-propyl)-cyclohexyl]-1,3,8-triaza-spiro[4.5]dec-1-ene-8-sulfonyl}-ethyl)-benzyl]-5,5-dimethyl-imidazolidine-2,4-dione] | 70%
Cc1cc(CN2CCCC2=O)cc(C)c1CCS(=O)(=O)N1CCC2(CC1)N=C(C1CCC(CCC(F)(F)F)CC1)NC2=O (centres unmarked) [Compound 776, 8-{2-[2,6-dimethyl-4-(2-oxo-pyrrolidin-1-ylmethyl)-phenyl]-ethanesulfonyl}-2-[4-(3,3,3-trifluoro-propyl)-cyclohexyl]-1,3,8-triaza-spiro[4.5]dec-1-en-4-one] | 79%
Cc1cc(CN2C(=O)CCC2=O)cc(C)c1CCS(=O)(=O)N1CCC2(CC1)N=C(C1CCC(CCC(F)(F)F)CC1)NC2=O (centres unmarked) [Compound 777, 1-[3,5-dimethyl-4-(2-{4-oxo-2-[4-(3,3,3-trifluoro-propyl)-cyclohexyl]-1,3,8-triaza-spiro[4.5]dec-1-ene-8-sulfonyl}-ethyl)-benzyl]-pyrrolidine-2,5-dione] | 71%
Cc1cc(N2C(=O)CNC2=O)c(C)cc1CCS(=O)(=O)N1CCC2(CC1)N=C(C1CCC(C)CC1)NC2=O (centres unmarked) [Compound 778, 3-(2,5-dimethyl-4-{2-[2-(4-methyl-cyclohexyl)-4-oxo-1,3,8-triaza-spiro[4.5]dec-1-ene-8-sulfonyl]-ethyl}-phenyl)-imidazolidine-2,4-dione] | 57%
Cc1cc(CN2C(=O)CNC2=O)cc(C)c1CCS(=O)(=O)N1CCC2(CC1)N=C(C1CCC(C)CC1)NC2=O (centres unmarked) [Compound 779, 3-(3,5-dimethyl-4-{2-[2-(4-methyl-cyclohexyl)-4-oxo-1,3,8-triaza-spiro[4.5]dec-1-ene-8-sulfonyl]-ethyl}-benzyl)-imidazolidine-2,4-dione] | 53%
Cc1cc(CN2C(=O)NC(C)(C)C2=O)cc(C)c1CCS(=O)(=O)N1CCC2(CC1)N=C(C1CCC(C)CC1)NC2=O (centres unmarked) [Compound 780, 3-(3,5-dimethyl-4-{2-[2-(4-methyl-cyclohexyl)-4-oxo-1,3,8-triaza-spiro[4.5]dec-1-ene-8-sulfonyl]-ethyl}-benzyl)-5,5-dimethyl-imidazolidine-2,4-dione] | 48%
Cc1cc(CN2CCCC2=O)cc(C)c1CCS(=O)(=O)N1CCC2(CC1)N=C(C1CCC(C)CC1)NC2=O (centres unmarked) [Compound 781, 8-{2-[2,6-dimethyl-4-(2-oxo-pyrrolidin-1-ylmethyl)-phenyl]-ethanesulfonyl}-2-(4-methyl-cyclohexyl)-1,3,8-triaza-spiro[4.5]dec-1-en-4-one] | 30%
Cc1cc(CN2C(=O)CCC2=O)cc(C)c1CCS(=O)(=O)N1CCC2(CC1)N=C(C1CCC(C)CC1)NC2=O (centres unmarked) [Compound 782, 1-(3,5-dimethyl-4-{2-[2-(4-methyl-cyclohexyl)-4-oxo-1,3,8-triaza-spiro[4.5]dec-1-ene-8-sulfonyl]-ethyl}-benzyl)-pyrrolidine-2,5-dione] | 14%
CC(=O)N(C)c1c(C)cc(CCS(=O)(=O)N2CCC3(CC2)N=C(C2CCC(C)CC2)NC3=O)cc1C (centres unmarked) [Compound 783, N-(2,6-dimethyl-4-{2-[2-(4-methyl-cyclohexyl)-4-oxo-1,3,8-triaza-spiro[4.5]dec-1-ene-8-sulfonyl]-ethyl}-phenyl)-N-methyl-acetamide] | 50%
CC(=O)N(C)Cc1cc(C)c(CCS(=O)(=O)N2CCC3(CC2)N=C(C2CCC(CCC(F)(F)F)CC2)NC3=O)c(C)c1 (centres unmarked) [Compound 784, N-[3,5-dimethyl-4-(2-{4-oxo-2-[4-(3,3,3-trifluoro-propyl)-cyclohexyl]-1,3,8-triaza-spiro[4.5]dec-1-ene-8-sulfonyl}-ethyl)-benzyl]-N-methyl-acetamide] | 84%
CC(=O)N(C)Cc1cc(C)c(CCS(=O)(=O)N2CCC3(CC2)N=C(C2CCC(C)CC2)NC3=O)c(C)c1 (centres unmarked) [Compound 785, N-(3,5-dimethyl-4-{2-[2-(4-methyl-cyclohexyl)-4-oxo-1,3,8-triaza-spiro[4.5]dec-1-ene-8-sulfonyl]-ethyl}-benzyl)-N-methyl-acetamide] | 92%
Cc1cc(N2CCC(=O)NC2=O)cc(C)c1CCS(=O)(=O)N1CCC2(CC1)N=C(C1CCC(C)CC1)NC2=O (centres unmarked) [Compound 786, 1-(3,5-dimethyl-4-{2-[2-(4-methyl-cyclohexyl)-4-oxo-1,3,8-triaza-spiro[4.5]dec-1-ene-8-sulfonyl]-ethyl}-phenyl)-dihydro-pyrimidine-2,4-dione] | 57%
Cc1cc(C(=O)N(C)N(C)C)cc(C)c1CCS(=O)(=O)N1CCC2(CC1)N=C(C1CCC(CCC(F)(F)F)CC1)NC2=O (centres unmarked) [Compound 787, 3,5-dimethyl-4-(2-{4-oxo-2-[4-(3,3,3-trifluoro-propyl)-cyclohexyl]-1,3,8-triaza-spiro[4.5]dec-1-ene-8-sulfonyl}-ethyl)-benzoic acid trimethylhydrazide] | 81%
O=C1NC(CCCCCCCC(F)(F)C(F)(F)F)=NC12CCN(S(=O)(=O)CCc1cccc3c1ccn3C[C@H](O)CO)CC2 [Compound 788, 8-{2-[1-((S)-2,3-dihydroxy-propyl)-1H-indol-4-yl]-ethanesulfonyl}-2-(8,8,9,9,9-pentafluoro-nonyl)-1,3,8-triaza-spiro[4.5]dec-1-en-4-one] | 142%
